Source: patent US20230320978A1, “COMPOSITIONS AND METHODS FOR LOWERING INTRACRANIAL PRESSURE” (THE REGENTS OF THE UNIVERSITY OF COLORADO, A BODY CORPORATE, priority 2020, published 2023)

Legend:
Format in all cases: in vivo
C57/BL6 mice [1] = assay: Tracer recovery from nasal mucosa after single intranasal dose and ventricular injection of fluorescent tracer; settings: single intranasal dose; for increase in nasal tracer recovery relative to vehicle-treated controls: commercial concentrations, p<0.05 vs control; for nasal tracer recovery at higher doses: higher doses than the commercial concentration (5x or 10x); for increase in tracer recovery from the nasal mucosa relative to control animals: p<0.001 compared to control
Description: In another exemplary method, compositions including prostaglandin F2-alpha analogues were used to analyze increased lymphatic channel contractility in the nasal mucosa of experimental animals. In this example, prostaglandin F2-alpha analogues latanoprost, bimatoprost, travoprost, latanoprostene bunod, and tafluprost were administered via an intranasal vehicle into the nasal mucosa of mice.
In this example, a total of 67 animals were studied using a scaled dosing technique in which each prostaglandin analog was evaluated at its commercial ophthalmic concentration as well as one or two more concentrated forms (either 5× or 10×).
Commercially available prostaglandin F2-alpha analogues used in the treatment of glaucoma were selected for evaluation; these included latanoprost, bimatoprost, travoprost, latanoprostene bunod, and tafluprost. Initial experiments were conducted with topical ophthalmic preparations, and pharmaceutical grade drug also was obtained and placed into solution for use in a more concentrated form. Agents were solubilized in DMSO and diluted in normal saline.
For single inhalation trails described herein, awake adult male and female C57/BL6 mice (approx. 6 weeks of age) were administered intranasal vehicle (10% DMSO) or drug solution (total 8 μl) by placing droplets (1-2 μl) of liquid at the nares using a micropipette and allowing the animal to inhale the liquid spontaneously. Anesthesia with ketamine and xylazine was administered via intraperitoneal injection, and anesthetized animals were placed within a stereotaxic apparatus. For multiday studies, intranasal drug administration was performed on awake animals daily using the same procedure described above. Approximately 6 hours after the third daily dose was given, animals were anesthetized and placed within a stereotaxic apparatus. A midline incision was created along the scalp, and the right lateral ventricle was targeted with placement of a 26-gauge needle to a depth of 3 mm into the brain at a position 1 mm lateral and 0.3 mm anterior to bregma. A 5 μl intraventricular injection of fluorescent tracer (AlexaFluor^647-ovalbumin solution) was delivered at a rate of 100 nl/seconds using a Hamilton syringe and an electric pump. Animals remained anesthetized for the 1 hour recovery period post injection and were then euthanized with a lethal overdose of ketamine followed by secondary cervical dislocation. Nasal turbinates were harvested, and tissue extracts were analyzed by ELISA.
The experimental technique was validated by evaluating recovery of fluorescent tracer from nasal mucosa after ventricular injection in the absence of intranasal treatment. Time points for tissue harvest were selected based on increased recovery at 60 minutes versus 30 minutes, with later harvest raising concern for potential contamination of specimens by hematogenous CSF absorption and recirculation of tracer throughout the tissues via arterial flow.
Statistical analyses were conducted with Stata using either two-tailed Student's t-tests or ANOVA RM with Dunnet's post hoc analysis.

C57/BL6 mice [2] = assay: as above; settings: single inhalation, lower doses, p<0.05 relative to controls
C57/BL6 mice [3] = assay: Tracer recovery from nasal turbinates after intranasal dosing once a day for three consecutive days; settings: 0.1, 0.5 or 1 mg/ml once a day for 3 days
Description: In another example, an additional 14 animals were administered inhaled doses of latanoprost (either 0.1, 0.5, or 1 mg/ml) once a day for three (3) consecutive days. Nasal turbinates were isolated 1 hour after ventricular tracer injection and between 7 and 9 hours after the final latanoprost dose was given intranasally according to the exemplary methods described herein.
For single inhalation trails described herein, awake adult male and female C57/BL6 mice (approx. 6 weeks of age) were administered intranasal vehicle (10% DMSO) or drug solution (total 8 μl) by placing droplets (1-2 μl) of liquid at the nares using a micropipette and allowing the animal to inhale the liquid spontaneously. Anesthesia with ketamine and xylazine was administered via intraperitoneal injection, and anesthetized animals were placed within a stereotaxic apparatus. For multiday studies, intranasal drug administration was performed on awake animals daily using the same procedure described above. Approximately 6 hours after the third daily dose was given, animals were anesthetized and placed within a stereotaxic apparatus. […] Nasal turbinates were harvested, and tissue extracts were analyzed by ELISA. […]

| SMILES | increase in nasal tracer recovery relative to vehicle-treated controls (C57/BL6 mice [1]) | nasal tracer recovery at higher doses (C57/BL6 mice [1]) | tracer recovery relative to controls, fluorometric analysis of nasal turbinate homogenates (words, FIG. 3) (C57/BL6 mice [2]) | effect on nasal tracer recovery at any tested dose (C57/BL6 mice [1]) | further results |
| --- | --- | --- | --- | --- | --- |
| CCNC(=O)CCC/C=C\C[C@@H]1[C@@H](/C=C/[C@@H](O)CCc2ccccc2)[C@H](O)C[C@@H]1O [bimatoprost] | approximately 1.5 fold | did not appear to improve at higher doses | Some enhanced tracer recovery relative to controls |  |  |
| CC(C)OC(=O)CCC/C=C\C[C@@H]1[C@@H](CC[C@@H](O)CCc2ccccc2)[C@H](O)C[C@@H]1O [latanoprost, isopropyl (Z)-7-[(1R,2R,3R,5S)-3,5-dihydroxy-2-[(3R)3-hydroxy-5-phenylpentyl]-cyclopentyl] hept-5-enoate] |  |  |  |  | increase in tracer recovery from the nasal mucosa relative to control animals (C57/BL6 mice [1]; 0.5 mg/ml solution, after 60 minutes): approximately 10 fold; increase in tracer recovery from the nasal mucosa relative to control animals (C57/BL6 mice [1]; 1 mg/ml solution, after 60 minutes): approximately 10 fold; dose dependence of the increase in tracer recovery from the nasal mucosa (C57/BL6 mice [1]; 0.1 to 1 mg/ml, after 60 minutes): semi dose-dependent increase; tracer recovery compared with all tested prostaglandin analogs and 0.1 mg/ml latanoprost (C57/BL6 mice [1]; concentrated 0.5 mg/ml and 1 mg/ml): significant increase in tracer recovery over all tested prostaglandin analogs and 0.1 mg/ml latanoprost; increased tracer recovery vs control (C57/BL6 mice [1]; standard ophthalmic dose 0.1 mg/ml, p<0.01 vs control): approximately 6 fold; difference in tracer recovery amongst the 3 doses (C57/BL6 mice [3]): no statistically significant difference; increase in tracer recovery relative to controls (C57/BL6 mice [3]; turbinates isolated 1 hour after tracer injection, 7 to 9 hours after final dose, p<0.05): ~3 fold |
| O=C(CCC/C=C\C[C@@H]1[C@@H](CC[C@@H](O)CCc2ccccc2)[C@H](O)C[C@@H]1O)OCCCCO[N+](=O)[O-] [latanoprostene bunod] |  |  |  | Neither travoprost nor latanoprostene bunod demonstrated a measurable effect |  |
| CC(C)OC(=O)CCC/C=C\C[C@@H]1[C@@H](/C=C/C(F)(F)COc2ccccc2)[C@H](O)C[C@@H]1O [tafluprost] | approximately 1.5 fold | did not appear to improve at higher doses | Some enhanced tracer recovery relative to controls |  |  |
| CC(C)OC(=O)CCC/C=C\C[C@@H]1[C@@H](/C=C/[C@@H](O)COc2cccc(C(F)(F)F)c2)[C@H](O)C[C@@H]1O [travoprost] |  |  |  | Neither travoprost nor latanoprostene bunod demonstrated a measurable effect |  |
